Results from paper PMC9578396, “Intrinsic Antibacterial Activity of Xeruborbactam In Vitro: Assessing Spectrum and Mode of Action” (Antimicrobial Agents and Chemotherapy, 2022).
Converted amounts (≈) assume the structure as drawn. “And” between values parts separate entries of the source, which are not always exact repeats. Equal entries are not always repeated. Where two headings read alike, the source gives them in different places.

Legend:
Format in all cases: cell-based
Acinetobacter baumannii = test: Broth microdilution MIC (CLSI), Acinetobacter baumannii; settings: Acinetobacter baumannii
Summary of the method: (§1)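 MICs by CLSI broth microdilution in in-house panels. Strains tested were engineered strains carrying porin and efflux mutation combinations, KPC-producing clinical isolates and derivatives cured of KPC plasmids, and KPC-producing clinical isolates enriched for porin mutations.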

Klebsiella pneumoniae = test: microbe, parasite or virus in culture; settings: for MIC: Klebsiella pneumoniae
Summary of the method: as §1

Streptococcus pneumoniae = test: MIC, Streptococcus pneumoniae
Excerpt: Bacterial isolates were subjected to broth microdilution susceptibility testing, performed according to Clinical and Laboratory Standards Institute (CLSI) methods ([46]), using panels prepared in-house. Meropenem was purchased from Sandoz, and all other antibiotics were from Sigma-Aldrich. Xeruborbactam was synthesized at Qpex Biopharma, San Diego, CA. Avibactam was purchased from eNovation Chemicals LLC, Bridgewater, NJ, USA; zidebactam was from MedKoo Biosciences, Inc., Morrisville, NC, and nacubactam was from Advanced ChemBlocks, Hayward, CA. Durlobactam was synthesized at Acme Bioscience, Palo Alto, CA, USA.

Compound: C[C@@H](O)[C@H]1C(=O)N2C(C(=O)O)=C(S[C@@H]3CN[C@H](C(=O)N(C)C)C3)[C@H](C)[C@H]12 [Meropenem]
- MIC (Acinetobacter baumannii; ATCC17978): 0.25 µg/mL and 0.66 µM
- MIC (Acinetobacter baumannii; strain ACM1013, ΔadeIJK): 0.125 µg/mL
- MIC (Acinetobacter baumannii; strain ACM1014, ΔadeABC): 0.125 µg/mL
- MIC (Acinetobacter baumannii; strain ACM1015, ΔadeIJK ΔadeABC): 0.06 µg/mL
- MIC (Acinetobacter baumannii; strain ACM1027, adeN (AdeIJK overexpression)): 1 µg/mL
- MIC (Acinetobacter baumannii; strain ACM1030, adeS (AdeABC overexpression)): 0.5 µg/mL
- MIC90 (Klebsiella pneumoniae): ≤0.06 µg/mL
- MIC (Klebsiella pneumoniae; ATCC49816): 0.03 µg/mL and 0.08 µM
- MIC (Klebsiella pneumoniae; KPM2601 (KPC-3; ΔompK35), alone): 32 µg/mL
- MIC (Klebsiella pneumoniae; KPM2631 (KPC-3; ompK36_fs ΔompK35), alone): 256 µg/mL
- MIC (Klebsiella pneumoniae; KPM3532 (TolQ::M189K), alone): 0.06 µg/mL
- MIC (Klebsiella pneumoniae; KPM3532, TolQ::M189K): 0.06 µg/mL
- MIC (Klebsiella pneumoniae; KPM3534 (TolQ::S31F), alone): 0.06 µg/mL
- MIC (Klebsiella pneumoniae; KPM3534, TolQ::S31F): 0.06 µg/mL
- MIC (Klebsiella pneumoniae; KPM4127 (KPM3532 TolQ::M189K/KPC-3), alone): 32 µg/mL
- MIC (Klebsiella pneumoniae; KPM4128 (KPM3534 TolQ::S31F/KPC-3), alone): 32 µg/mL
- MIC (Klebsiella pneumoniae; KPM4129 (KPM3532 TolQ::M189K/NDM-1), alone): > 64 µg/mL
- MIC (Klebsiella pneumoniae; KPM4130 (KPM3534 TolQ::S31F/NDM-1), alone): > 64 µg/mL
- MIC (Klebsiella pneumoniae; KPM4235, TolQ::IP(183–1844)PR): 0.06 µg/mL
- MIC (Klebsiella pneumoniae; KPM4236, TolQ::TAA at aa 103): 0.06 µg/mL
- MIC (Klebsiella pneumoniae; KPM4238, TolQ::S25F): 0.06 µg/mL
- MIC (Klebsiella pneumoniae; KPM4239, TolQ::S28F): 0.06 µg/mL
- MIC (Klebsiella pneumoniae; KPM4240, TolQ::S25Y): 0.06 µg/mL
- MIC (Klebsiella pneumoniae; no-plasmid strain KPM1026a): 0.03 µg/mL
- MIC (Klebsiella pneumoniae; no-plasmid strain KPM1027): 0.06 µg/mL
- MIC (Klebsiella pneumoniae; no-plasmid strain KPM1171): 2 µg/mL
- MIC (Klebsiella pneumoniae; no-plasmid strain KPM2040): 0.125 µg/mL
- MIC (Klebsiella pneumoniae; no-plasmid strain KPM2600): 0.06 µg/mL
- MIC (Klebsiella pneumoniae; no-plasmid strain KPM2613): 0.25 µg/mL
- MIC (Klebsiella pneumoniae; strain KPM2600, ΔompK35): 0.06 µg/mL
- MIC (Klebsiella pneumoniae; strain KPM2613, ΔompK35 ompK36_2040): 0.25 µg/mL
- MIC (Klebsiella pneumoniae; strain KPM2696, ΔacrB): 0.03 µg/mL
- MIC (Streptococcus pneumoniae; Streptococcus pneumoniae): 0.125 µg/mL (≈ 0.326 µM)
- MIC (Streptococcus pneumoniae; Streptococcus pneumoniae, sp001, read-out: MIC): ≤ 0.03 µg/mL
- MIC (Streptococcus pneumoniae; Streptococcus pneumoniae, sp002, read-out: MIC): ≤ 0.03 µg/mL
- MIC (Streptococcus pneumoniae; Streptococcus pneumoniae, sp003, read-out: MIC): ≤ 0.03 µg/mL
- MIC (Streptococcus pneumoniae; Streptococcus pneumoniae, sp004, read-out: MIC): 0.25 µg/mL (≈ 0.652 µM)
- MIC (Streptococcus pneumoniae; Streptococcus pneumoniae, sp005, read-out: MIC): 0.06 µg/mL (≈ 0.156 µM)
- MIC (Streptococcus pneumoniae; Streptococcus pneumoniae, sp006, read-out: MIC): 0.25 µg/mL (≈ 0.652 µM)
- MIC (Streptococcus pneumoniae; Streptococcus pneumoniae, sp009, read-out: MIC): 0.25 µg/mL (≈ 0.652 µM)
- MIC (Streptococcus pneumoniae; Streptococcus pneumoniae, sp117, read-out: MIC): 0.25 µg/mL (≈ 0.652 µM)
- MIC (Streptococcus pneumoniae; Streptococcus pneumoniae, sp118, read-out: MIC): 0.25 µg/mL (≈ 0.652 µM)
- MIC (Streptococcus pneumoniae; Streptococcus pneumoniae, sp119, read-out: MIC): 0.25 µg/mL (≈ 0.652 µM)
- MIC (Streptococcus pneumoniae; Streptococcus pneumoniae, sp120, read-out: MIC): 0.25 µg/mL (≈ 0.652 µM)
- MIC (Streptococcus pneumoniae; Streptococcus pneumoniae, sp122, read-out: MIC): 4 µg/mL (≈ 10.4 µM)
- MIC (Streptococcus pneumoniae; Streptococcus pneumoniae, sp123, read-out: MIC): 0.25 µg/mL (≈ 0.652 µM)
- MIC (Streptococcus pneumoniae; Streptococcus pneumoniae, sp125, read-out: MIC): 0.25 µg/mL (≈ 0.652 µM)
- MIC (Streptococcus pneumoniae; Streptococcus pneumoniae, sp126, read-out: MIC): 0.25 µg/mL (≈ 0.652 µM)
- MIC (Streptococcus pneumoniae; sp008): 0.125 µg/mL (≈ 0.326 µM)
- MIC (Streptococcus pneumoniae; sp121): 0.125 µg/mL (≈ 0.326 µM)
